Results published in patent US9029366B2, “Substituted bicyclic alkoxy pyrazole analogs as allosteric modulators of mGluR5 receptors” (Vanderbilt University, priority 2012, dated 2015).

Key:
[1] = biological target: human mGluR5 (Homo sapiens, UniProt P41594); assay: Cell-based functional Ca2+ mobilization assay (FDSS), potentiation of glutamate EC20 response, HEK293A cells transfected with human mGluR5a (H10H or H12H cell line); conditions: H10H cell line expressing recombinant human mGluR5, in presence of glutamate EC20, ** = compound is an antagonist; for EC50: read-out: pEC50 (converted); for Emax: HEK293-A, % of maximal glutamate response
Sequence of human mGluR5 (P41594 21-1180 isoform P41594-2 limits assumed): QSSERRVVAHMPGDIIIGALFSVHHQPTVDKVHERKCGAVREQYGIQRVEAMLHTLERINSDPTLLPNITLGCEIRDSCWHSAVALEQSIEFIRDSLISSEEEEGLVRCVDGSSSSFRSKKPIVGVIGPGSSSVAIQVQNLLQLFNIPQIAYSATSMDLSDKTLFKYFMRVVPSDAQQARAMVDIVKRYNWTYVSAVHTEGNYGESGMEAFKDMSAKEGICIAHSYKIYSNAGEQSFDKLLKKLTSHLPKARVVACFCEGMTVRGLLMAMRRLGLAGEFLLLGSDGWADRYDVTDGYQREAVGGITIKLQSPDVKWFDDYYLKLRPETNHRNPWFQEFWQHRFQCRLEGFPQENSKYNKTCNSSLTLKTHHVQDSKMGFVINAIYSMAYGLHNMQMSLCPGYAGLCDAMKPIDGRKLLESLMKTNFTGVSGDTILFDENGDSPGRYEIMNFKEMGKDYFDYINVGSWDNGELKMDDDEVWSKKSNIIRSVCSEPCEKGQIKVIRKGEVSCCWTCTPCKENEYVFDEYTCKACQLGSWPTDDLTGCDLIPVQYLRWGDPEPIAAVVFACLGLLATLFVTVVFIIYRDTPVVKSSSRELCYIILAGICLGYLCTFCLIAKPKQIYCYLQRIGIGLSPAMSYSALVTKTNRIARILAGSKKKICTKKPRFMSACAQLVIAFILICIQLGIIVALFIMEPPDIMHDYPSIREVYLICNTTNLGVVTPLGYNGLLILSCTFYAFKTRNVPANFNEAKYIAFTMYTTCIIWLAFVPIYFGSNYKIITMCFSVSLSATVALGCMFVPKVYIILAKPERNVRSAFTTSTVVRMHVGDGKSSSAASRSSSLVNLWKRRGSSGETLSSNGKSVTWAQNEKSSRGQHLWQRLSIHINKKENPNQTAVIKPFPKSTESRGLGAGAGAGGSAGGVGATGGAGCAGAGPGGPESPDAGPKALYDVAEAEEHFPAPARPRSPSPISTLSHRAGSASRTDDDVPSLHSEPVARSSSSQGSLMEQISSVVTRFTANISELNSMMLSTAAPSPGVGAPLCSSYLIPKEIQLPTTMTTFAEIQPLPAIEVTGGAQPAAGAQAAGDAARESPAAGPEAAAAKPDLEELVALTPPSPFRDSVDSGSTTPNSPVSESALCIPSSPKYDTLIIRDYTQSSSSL
Protocol: Human embryonic kidney (HEK) cells transfected with rat mGluR5 were plated in clear bottom assay plates for assay in a Functional Drug Screening System (FDSS). In the alternative assay, HEK cells transfected with human mGluR5 were plated for assay in the FDSS. In some cases the HEK cells transfected with human mGluR5 are the H10H cell line. Alternatively, the HEK cells transfected with human mGluR5 are the H12H cell line. […] The cells were loaded with a Ca^2+-sensitive fluorescent dye (e.g., Fluo-4), and the plates were washed and placed in the FDSS instrument. After establishment of a fluorescence baseline for about three seconds, the compounds of the present invention were added to the cells, and the response in cells was measured. Five minutes later, an mGluR5 agonist (e.g., glutamate, 3,5-dihydroxyphenylglycine, or quisqualate) was added to the cells, and the response of the cells was measured.
The above described assay can be operated in two modes. In the first mode, a range of concentrations of the present compounds were added to cells, followed by a single fixed concentration of agonist. If a compound acted as a potentiator, an EC50 value for potentiation and a maximum extent of potentiation by the compound at this concentration of agonist was determined by non-linear curve fitting. In the second mode, several fixed concentrations of the present compounds were added to various wells on a plate, followed by a range of concentrations of agonist for each concentration of present compound; the EC50 values for the agonist at each concentration of compound were determined by non-linear curve fitting. A decrease in the EC50 value of the agonist with increasing concentrations of the present compounds (a leftward shift of the agonist concentration-response curve) is an indication of the degree of mGluR5 potentiation at a given concentration of the present compound. An increase in the EC50 value of the agonist with increasing concentrations of the present compounds (a rightward shift of the agonist concentration-response curve) is an indication of the degree of mGluR5 antagonism at a given concentration of the present compound. The second mode also indicates whether the present compounds also affect the maximum response to mGluR5 to agonists.
Human mGluR5a cDNA in pCMV6-XL6 mammalian expression plasmid was purchased from OriGene Technologies, Inc. (catalogue number SC326357) and subcloned into pcDNA3.1(−). Human embryonic kidney (HEK)293A cells were then transfected with human mGluR5a pcDNA3.1(−) using LipofectAmine2000 (Invitrogen) and monoclones were selected and tested for functional response using a Ca^2+ mobilization assay. Monoclones were named for the species (“H” for human) plus the location on the plate (e.g. “10H”).
HEK cells transfected with the human mGluR5a receptor (H10H or H12H cell line) were plated at 15,000 cells/well in clear-bottomed poly-D-lysine-coated assay plates (BD Falcon) in glutamate-glutamine-free growth medium and incubated overnight at 37° C. and 5% CO2. Cell-lines used were either the H10H or H12H cell-lines expressing the human mGluR5 receptor. The following day, the growth medium was removed and the cells were washed with assay buffer containing 1× Hank's balanced salt solution (Invitrogen, Carlsbad, Calif.), 20 mM HEPES, 2.5 mM probenecid, pH 7.4 and left with 20 μL of this reagent. Following this step, the cells were loaded with calcium indicator dye, fluo-4 AM, to a final concentration of 2 μM and incubated for 40-45 min at 37° C. The dye solution was removed and replaced with assay buffer. Cell plates were held for 10-15 min at room temperature and were then loaded into the Functional Drug Screening System 6000 (FDSS 6000, Hamamatsu, Japan).
After establishment of a fluorescence baseline for about 3 seconds, the compounds of the present invention were added to the cells, and the response in cells was measured.

SMILES | EC50 [1] [nM] | Emax [1] [%] | melting point [°C]
Cc1cc(COc2cc3n(n2)CCN(C(=O)c2ccc(F)cc2)C3)ccn1 [Example B4, 5-[(4-fluorophenyl)carbonyl]-2-[(2-methylpyridin-4-yl)methoxy]-4,5,6,7-tetrahydropyrazolo[1,5-a]pyrazine] | > 10000 | 26 | 103.4
O=C(c1ccc(F)cc1)N1CCn2nc(OCc3ccc(F)cc3)cc2C1 [Example B9] | 479 | 54 | 165.4
O=C(c1ccc(F)cc1)N1CCn2nc(OCc3ccccc3F)cc2C1 [Example B11] | 234 | 64 | 135.2
Cc1ccc(COc2cc3n(n2)CCN(C(=O)c2ccc(F)cc2)C3)cc1 [Example B12] | > 30200 | 28 | 156.9
Cc1ccccc1COc1cc2n(n1)CCN(C(=O)c1ccc(F)cc1)C2 [Example B14] | 2000 | 51 | 99.3
COc1ccc(COc2cc3n(n2)CCN(C(=O)c2ccc(F)cc2)C3)cc1 [Example B15] | > 30200 | 22 | 108.3
COc1cccc(COc2cc3n(n2)CCN(C(=O)c2ccc(F)cc2)C3)c1 [Example B16] | 1410 | 49 | 120.8
COc1ccccc1COc1cc2n(n1)CCN(C(=O)c1ccc(F)cc1)C2 [Example B17] | > 10000 | 47 | 135.6
O=C(c1ccc(F)cc1)N1CCn2nc(OCc3ccccn3)cc2C1 [Example B18] | > 30200 | 22 | 138.1
O=C(c1ccc(F)cc1)N1CCn2nc(OCc3ccncc3)cc2C1 [Example B20] | 457 | 53 | 178.8
Cc1nccc(C(=O)N2CCn3nc(OCc4ccccc4)cc3C2)n1 [Example B31] | > 30200 | 28 | 134
O=C(c1ccc(F)cc1)N1CCCn2nc(OCc3ccncc3)cc2C1 [Example B89] | > 10000 | 40 | > 300
O=C(c1cc(F)cc(F)c1)N1CCn2nc(OCc3cccc(F)c3)cc2C1 [Example B94] | 61.7 | 25 | 154.7
O=C(c1ccc(F)cc1)N1CCn2nc(OCc3ccnc(F)c3)cc2C1 [Example B116] | ≥ 10000 | 51 | 
O=C(c1ccc(F)cc1)N1CCn2nc(OCc3ncccn3)cc2C1 [Example B117] | > 30200 | 30 | 
O=C(c1ccc(F)cc1)N1CCn2nc(OCc3ccc4nccn4c3)cc2C1 [Example B118] | > 30200 | 25 | 
CS(=O)(=O)c1cccc(COc2cc3n(n2)CCN(C(=O)c2ccc(F)cc2)C3)c1 [Example B122] | > 30200 | 28 | 
O=C(c1ccc(F)cc1)N1CCn2nc(OCc3ccnc(C(F)(F)F)c3)cc2C1 [Example B123] | ≥ 10000 | 30 | 
O=C(c1ccc(F)cc1)N1CCn2nc(OCc3cccc(C(F)F)c3)cc2C1 [Example B124] | 676 | 54 | 
O=C(N1CCn2nc(OCc3ccccc3)cc2C1)C12C3C4C5C3C1C5C42 (centres unmarked) [Example B125] | 245 | 73 | 
O=C(c1ccc(F)cc1)N1CCn2nc(OCc3ccnc(Cl)c3)cc2C1 [Example B126] | 178 | 35 | 
N#Cc1cc(COc2cc3n(n2)CCN(C(=O)c2ccc(F)cc2)C3)ccn1 [Example B127] | 562 | 36 | 
Cn1ccc(COc2cc3n(n2)CCN(C(=O)c2ccc(F)cc2)C3)cc1=O [Example B128] | > 30200 | 28 | 
O=C(c1ccc(F)cc1)N1CCn2nc(OCc3cc[n+]([O-])cc3)cc2C1 [Example B135] | ≥ 10000 | 38 | 
O=C(c1ccc(F)cc1)N1CCn2nc(OCc3ccncc3Cl)cc2C1 [Example B136] | ≥ 10000 | 41 | 

Next, values leading:

EC50 [1] [nM] | Emax [1] [%] | melting point [°C] | SMILES
251 | 46 | 120.8 | O=C(c1cccc(F)c1)N1CCn2nc(OCc3ccccc3)cc2C1 [Example B2, 2-(benzyloxy)-5-[(3-fluorophenyl)carbonyl]-4,5,6,7-tetrahydropyrazolo[1,5-a]pyrazine]
126 | 60 | > 300 | N#Cc1cccc(COc2cc3n(n2)CCN(C(=O)c2ccc(F)cc2)C3)c1 [Example B3, 3-[({5-[(4-fluorophenyl)carbonyl]-4,5,6,7-tetrahydropyrazolo[1,5-a]pyrazin-2-yl}oxy)methyl]benzonitrile]
724 | 42 | 151.6 | N#Cc1cccc(C(=O)N2CCn3nc(OCc4ccccc4)cc3C2)c1 [Example B5]
> 30200 | 24 | 117.6 | N#Cc1cc(F)cc(C(=O)N2CCn3nc(OCc4ccccc4)cc3C2)c1 [Example B6]
89.1 | 62 | > 300 | O=C(c1ccc(F)cc1)N1CCn2nc(OCc3cccc(F)c3)cc2C1 [Example B10]
339 | 59 | 118.9 | Cc1cccc(COc2cc3n(n2)CCN(C(=O)c2ccc(F)cc2)C3)c1 [Example B13]
1510 | 60 | 123 | O=C(c1ccc(F)cn1)N1CCn2nc(OCc3ccccc3)cc2C1 [Example B28]
> 30200 | 27 | 135.1 | O=C(c1ncccc1Cl)N1CCn2nc(OCc3ccccc3)cc2C1 [Example B29]
> 10000 | 32 | 81.2 | Cc1cccc(C(=O)N2CCn3nc(OCc4ccccc4)cc3C2)n1 [Example B32]
3890 | 44 | 104.6 | Cc1ccc(C(=O)N2CCn3nc(OCc4ccccc4)cc3C2)cn1 [Example B33]
> 30200 | 28 | 129.2 | Cc1ncccc1C(=O)N1CCn2nc(OCc3ccccc3)cc2C1 [Example B34]
> 30200 | 27 | 138.6 | COc1ccc(C(=O)N2CCn3nc(OCc4ccccc4)cc3C2)cn1 [Example B35]
> 30200 | 9 | 97.1 | COc1cccc(C(=O)N2CCn3nc(OCc4ccccc4)cc3C2)n1 [Example B82]
> 30200 | 27 | 166.4 | Cc1ncc(C(=O)N2CCn3nc(OCc4ccccc4)cc3C2)cn1 [Example B83]
66.1 | 48.5 | 150.4 | N#Cc1cccc(COc2cc3n(n2)CCN(C(=O)c2ccccc2)C3)c1 [Example B95]
331 | 48 | 131 | O=C(c1ccccc1)N1CCn2nc(OCc3ccc(F)cc3)cc2C1 [Example B97]
112 | 66 | 117 | O=C(c1cccc(Cl)c1)N1CCn2nc(OCc3cccc(F)c3)cc2C1 [Example B98]
> 30200 | 32 | 118.2 | N#Cc1cc(F)cc(C(=O)N2CCn3nc(OCc4cccc(F)c4)cc3C2)c1 [Example B101]
891 | 37 |  | O=C(c1ccnc(F)c1)N1CCn2nc(OCc3ccccc3)cc2C1 [Example B138]
